This is an account of results in ChEMBL document CHEMBL4732132, “Stereoselective synthesis of novel 2'-(S)-CCG-IV analogues as potent NMDA receptor agonists” (Eur J Med Chem, 2021).

Active and inactive are the calls of the source. The rule behind the calls is not given here.

Data set [1] concerns Oocyte. Description: Agonist activity at recombinant rat GluN1a/GluN2A receptor expressed in Xenopus laevis oocytes assessed as increase in glycine/glutamate-induced channel current at -40 mV holding potential by two-electrode voltage clamp method relative to glutamate. The format is cell-based. In general terms: Two-electrode voltage clamp holds a large cell at a set potential and records current.

Data set [2] in a line: Agonist activity at recombinant rat GluN1a/GluN2B receptor expressed in Xenopus laevis oocytes assessed as increase in glycine/glutamate-induced channel current at -40 mV holding potential by two-electrode voltage clamp method relative to control. To be noted: for Emax: Rattus norvegicus, Oocyte, read-out: Efficacy. The format is cell-based, Oocyte.
Data set [3] concerns Oocyte. Description: Agonist activity at recombinant rat GluN1a/GluN2C receptor expressed in Xenopus laevis oocytes assessed as increase in glycine/glutamate-induced channel current at -40 mV holding potential by two-electrode voltage clamp method relative to control. The format is cell-based.
Data set [4] is described as follows: Agonist activity at recombinant rat GluN1a/GluN2A receptor expressed in Xenopus laevis oocytes assessed as increase in glycine/glutamate-induced channel current at -40 mV holding potential by two-electrode voltage clamp method. Type of data set: cell-based, Oocyte.
Data set [5] can be described thus: Agonist activity at recombinant rat GluN1a/GluN2C receptor expressed in Xenopus laevis oocytes assessed as increase in glycine/glutamate-induced channel current at -40 mV holding potential by two-electrode voltage clamp method. Type of data set: cell-based, Oocyte.
A short description of data set [6]: Agonist activity at recombinant rat GluN1a/GluN2D receptor expressed in Xenopus laevis oocytes assessed as increase in glycine/glutamate-induced channel current at -40 mV holding potential by two-electrode voltage clamp method. The format is cell-based, Oocyte.
Data set [7] is described as follows: Agonist activity at recombinant rat GluN1a/GluN2B receptor expressed in Xenopus laevis oocytes assessed as increase in glycine/glutamate-induced channel current at -40 mV holding potential by two-electrode voltage clamp method. Type of data set: cell-based, Oocyte.
Data set [8] in a line: Agonist activity at recombinant rat GluN1a/GluN2D receptor expressed in Xenopus laevis oocytes assessed as increase in glycine/glutamate-induced channel current at -40 mV holding potential by two-electrode voltage clamp method relative to control. The format is cell-based, Oocyte. Particulars: for Emax: Rattus norvegicus, Oocyte, read-out: Efficacy.
The mark [9] stands for this setting: Rattus norvegicus, Oocyte, read-out: EC50.

For `[N-]=[N+]=NC[C@]1(C(=O)O)C[C@H]1[C@H](N)C(=O)O`, the Efficacy in the data set with Oocyte [1] (filed as agonist) amounted to 81.7%; in the data set with Oocyte [3] (filed as agonist), 62.7%. In addition, the figures for the Emax in data set [2] and in data set [8] were 92.6% and 76.9%, respectively. Also, the EC50 is 4.5 µM in data set [4] (setting [9]), 2.7 µM in data set [5] (setting [9]), 0.4 µM in data set [6] (setting [9]) and 0.9 µM in data set [7] (setting [9]).
On to `N[C@H](C(=O)O)[C@@H]1C[C@]1(COCc1ccccc1)C(=O)O`, for which the Efficacy entry in the data set with Oocyte [1] and in the data set on Oocyte [3] was “inactive” throughout. Further, the Efficacy result in data set [2] (rat, oocyte) is “Not Active”; in data set [8] (rat, oocyte), “Not Active”. In addition, the half-maximal effective concentration (EC50) entry in data set [4] (oocyte), in data set [5] (oocyte), in data set [6] (oocyte) and in data set [7] (oocyte) was “Not Active” each time.
For `CCCC[C@]1(C(=O)O)C[C@H]1[C@H](N)C(=O)O`, the Efficacy with Oocyte [1] (filed as agonist) came to 65%; in the data set on Oocyte [3] (filed as agonist) it was 85%. Also, the results for the Emax in data set [2] and in data set [8] were 107% and 94%, respectively. The EC50 in data set [4] (setting [9]) stood at 30 µM; in data set [5] (setting [9]), 16 µM; in data set [6] (setting [9]) it was 3.3 µM; in data set [7] (setting [9]), 10 µM.
As to `N[C@H](C(=O)O)[C@@H]1C[C@]1(CS)C(=O)O`, the Efficacy was 87% in the data set on Oocyte [1] (filed as agonist) and 86% in the data set on Oocyte [3] (filed as agonist). The figures for the Emax in data set [2] and in data set [8] were 103% and 93%, respectively. Also, the half-maximal effective concentration (EC50) was 4.8 µM in data set [4] (setting [9]), 2.5 µM in data set [5] (setting [9]), 0.3 µM in data set [6] (setting [9]) and 1 µM in data set [7] (setting [9]).
As for `C[C@]1(C(=O)O)C[C@H]1[C@H](N)C(=O)O`, the Efficacy amounted to 99% in the data set on Oocyte [1] (filed as agonist) and 90% with Oocyte [3] (filed as agonist). Also, the Emax in data set [2] turned out to be 123%; in data set [8] it was 111%. Also, the EC50 in data set [4] (setting [9]) was 0.26 µM; in data set [5] (setting [9]), 0.11 µM; in data set [6] (setting [9]) it was 0.03 µM; in data set [7] (setting [9]), 0.08 µM.
For `C=CCOC[C@]1(C(=O)O)C[C@H]1[C@H](N)C(=O)O`, the Efficacy stood at 73.9% in the data set with Oocyte [1] (filed as agonist) and 84.9% with Oocyte [3] (filed as agonist). In addition, the figures for the Emax in data set [2] and in data set [8] were 111% and 98.7%, respectively. Also, the EC50 in data set [4] (setting [9]) came out at 3.7 µM; in data set [5] (setting [9]), 2.6 µM; in data set [6] (setting [9]), 0.7 µM; in data set [7] (setting [9]), 1.5 µM.
On to `N[C@H](C(=O)O)[C@@H]1C[C@]1(CO)C(=O)O`, for which the Efficacy in the data set with Oocyte [1] (filed as agonist) was found to be 91%; in the data set on Oocyte [3] (filed as agonist), 98.2%. In addition, the Emax in data set [2] was 116%; in data set [8], 104%. For the same molecule, the EC50 in data set [4] (setting [9]) was 3 µM; in data set [5] (setting [9]) it was 1.9 µM; in data set [6] (setting [9]), 0.4 µM; in data set [7] (setting [9]) it was 1.1 µM.

For orientation: EC50 means the concentration at which the effect is half-maximal.
